Several values for one entry are separate records, joined by “and”; a condition that tells them apart may be missing. Identical values can stand only once.
Legend:
MRSA in the nares = experiment: Nasal colonization human study Part One, quantitative swab cultures, MRSA; type: in vivo, S. aureus; details: for MRSA Average: laser w/ drug arm, one line per patient
Protocol: (§1) This investigational protocol was an open-label study of subjects who are colonized with MRSA in the nares (nostril). The study was done in two parts.
(§2) In this human study, three arms were produced. […] This was done on day 1 and again on day three; and Arm #3: ⅓ of the subjects were treated with the laser and then a topical antibiotic three times a day for five days. Prior to enrollment in this study, prospective subjects met all of the following criteria: age≧18 years and ≦70 years of age; previous positive MRSA culture; negative urine pregnancy test or post-menopausal for one year; willing to comply with study requirements, including return visits and self-application of topical antibiotics; and willing to provide informed consent to participate. Prospective subjects were excluded from this study if any of the following criteria were met: pregnancy; patients who are severely immunocompromised (such as may occur in AIDS, renal transplant regimens, immunosuppressed states consequent to malignancy or agents used in rendering oncologic care, or who suffer from end stage renal disease); diabetic patients; allergy to antimicrobials being used in the study (group 3).
(§3) All participants underwent an initial quantitative assessment for nasal carriage of S. aureus, during their first visit. Each participant had the anterior nares (each nostril) sampled for culture with a circular movement (three rotations on each side) of a sterile wood applicator plain Rayon® tipped swab in each nostril and placed in a labled tube. 2 ml of room temp phosphate buffered saline was placed in the tube after the removal of the swab (to completely cover the swab in the tube). Each swab was then placed back in the tube and the tube was then vortexed for 15 seconds to disperse isolates of MRSA and/or MSSA into the PBS solution. Aliquots of PBS from the tube were plated in the following manner: 100 μl from each tube was lawn plated in triplicate (3×) on selective Chromogenic MRSA And MSSA agar. Plates were placed in incubator within 30 minutes of the plating procedure, and colonies were counted manually, and recorded 18 hrs after plating.
(§4) On day one of the study, all subjects underwent this exact procedure in arms 1 and 2 of the study two minutes before the laser procedure. They again were sampled in the same manner 2 minutes after the laser procedure. In the third arm of the study, they were swabbed two minutes before the procedure and the first antibiotic administration was completed after the laser therapy. The post/laser swab sample was taken for this arm 20 min later.
(§5) On day three of the study, all subjects from arms one two and three underwent the exact same procedures as day 1 of the study.
(§6) On day five all subjects from all arms underwent just one swabbing per nostril with the exact same sampling procedure one time.
(§7) Application of H202: 3% OTC hydrogen peroxide was applied to a cotton pledget for application to the subject prior to irradiation. This was inserted in the nose for 120 seconds and then removed. The subjects were then given doses of phototherapeutic near infrared radiation as described. Application of generic topical Antimicrobial: The subjects were first given doses of phototherapeutic near infrared radiation as described. […] The swab was inserted approximately 1 cm in to the anterior nares and rotated 360 degrees several times and removed. Patients were instructed to perform the exact application procedure 3 times a day for the remaining 5 days.
(§8) The NOVEON™ laser was used for two (2) six-minute treatments in each nostril on day (1) and day (3) of the study.
(§9) The laser was calibrated before the first treatment of the day. Intermittent temperature testing of the treatment site was performed on each subject using a noncontact infrared thermometer (Raytek Minitemp), 30-60 second intervals.

MRSA (ATCC BAA-43) = experiment: MRSA/antimicrobial potentiation, CFU on TSB agar with and without antibiotic after laser (Example XXII, Experiments 1-4); type: cell-based, Staphylococcus aureus subsp. aureus; details: for CFU/ml / CFU (single plate count) / AVG (CFU): Drug yes; for CFU (single plate count): agar with 30 μg/ml methicillin, 0.5 μg/ml penicillin G or 4 μg/ml erythromycin, 24 hrs 37° C., plates 1-5; for AVG (CFU): mean of 5 plates; for Drug Effect: CFU with drug relative to without drug; for Laser Effect (+Drug): Exp vs Cont, both with drug
Protocol: Four separate experiments have been performed.
Eight different laser dosages were used to treat a saline-suspension of logarithmically growing MRSA, labeled A1 to H1.
The treated and a control untreated suspension were diluted and plated in triplicate on trypic soy agar with or without 30 μg/ml methicillin After 24 hrs of growth at 37° C. colonies were counted.
CFU (colony forming units) were compared between the plates with and without methicillin for both control (untreated) and treated MRSA.
The treated and a control untreated suspension were diluted and plated in triplicate on trypic soy agar with or without 30 μg/mlmethicillin.
After 24 hrs of growth at 37° C. colonies were counted.
The treated and a control untreated suspension were diluted and plated in pentuplicate on trypic soy agar with or without 30 μg/ml methicillin.

MRSA = experiment: CFU counts of MRSA plated on agar with antibiotic after sub-lethal NIMELS laser (Examples IX-XII); type: cell-based, Staphylococcus aureus; details: for MRSA colony count, EXPERIMENTAL: sub-lethal NIMELS laser
Description: The following parameters illustrate the general bacterial methods according to the invention as applied to MRSA for the in vitro Experiments V and VIII-XII.
The null hypothesis is μ1−μ2=0 and μ1−μ3=0 where:
a) μ1 is sub-lethal dosimetry from the NIMEL laser system on MRSA as a control and;
The null hypothesis is μ1−μ2=0 and μ1−μ3=0 where: • a) μ1 is sub-lethal dosimetry from the NIMEL laser system on MRSA as a control and; • b)μ2 is the same sub-lethal dosimetry from the NIMEL laser system on MRSA with the addition of tetracycline at resistant MIC just below effectiveness level and; • c) μ3 is the same sub-lethal dosimetry from the NIMEL laser system on MRSA with the addition of rifampin at resistant MIC just below effectiveness level.
The null hypothesis is μ1−μ2=0 and μ1−μ3=0 where: a) μ1 is sub-lethal dosimetry from the NIMEL laser system on MRSA as a control and; b)μ2 is the same sub-lethal dosimetry from the NIMEL laser system on MRSA with the addition of methicillin at resistant MIC just below effectiveness level and; […]

MSSA in the nares = experiment: Nasal colonization human study Part One, quantitative swab cultures, MSSA; type: in vivo, S. aureus; details: laser w/ drug arm, one line per patient
Protocol: as §1, §2, §3, §4, §5, §6, §7, §8, §9

[1] = Cont (no laser), groups A4/C4/E4
[2] = Cont (no laser), groups B4/D4/F4
[3] = Exp (laser 870+930 at 5 W 14 min, then 930 at 6 W 9 min), groups B4/D4/F4
[4] = Exp (laser 870+930 at 5.5 W 12 min, then 930 at 8 W 6 min), groups A4/C4/E4
[5] = Initial Analysis, Post-treatment swab, left nostril
[6] = Initial Analysis, Post-treatment swab, right nostril
[7] = Initial Analysis, Pre swab (baseline), left nostril, mean of triplicate plates
[8] = Initial Analysis, Pre swab (baseline), right nostril
[9] = Second Analysis, Post-treatment swab, left nostril
[10] = Second Analysis, Post-treatment swab, right nostril
[11] = Second Analysis, Pre swab, left nostril
[12] = Second Analysis, Pre swab, right nostril
[13] = Third Analysis, Swab, left nostril
[14] = Third Analysis, Swab, right nostril

Q: How did the “outcome of Laser plus H2O2 arm on nasal colonization” value (MRSA in the nares; humans, topical 3% H2O2 120 seconds, then laser, day 1 and day 3) turn out when `OO` [H2O2, hydrogen peroxide] was run?
A: some transient benefit in some of the patients, but no obvious long-term efficacy

Q: Which results are given for `CC1(C)S[C@@H]2[C@H](NC(=O)Cc3ccccc3)C(=O)N2[C@H]1C(=O)O` [Penicillin, penicillin G]?
A: CFU/ml (MRSA (ATCC BAA-43); [1]): 3.25E+08 CFU/ml; CFU (single plate count) (MRSA (ATCC BAA-43); [1]): 106 CFU and 99 CFU and 102 CFU and 113 CFU and 122 CFU; AVG (CFU) (MRSA (ATCC BAA-43); [1]): 108.4 CFU; CFU/ml (MRSA (ATCC BAA-43); [2]): 3.98E+08 CFU/ml; CFU (single plate count) (MRSA (ATCC BAA-43); [2]): 101 CFU and 111 CFU and 138 CFU and 132 CFU and 182 CFU; AVG (CFU) (MRSA (ATCC BAA-43); [2]): 132.8 CFU; Drug Effect (MRSA (ATCC BAA-43); [1]): 0.75; Drug Effect (MRSA (ATCC BAA-43); [2]): 1.07; CFU/ml (MRSA (ATCC BAA-43); [3]): 7.14E+07 CFU/ml; AVG (CFU) (MRSA (ATCC BAA-43); [3]): 23.8 CFU; Drug Effect (MRSA (ATCC BAA-43); [3]): 0.31; CFU/ml (MRSA (ATCC BAA-43); [4]): 9.12E+07 CFU/ml; AVG (CFU) (MRSA (ATCC BAA-43); [4]): 30.4 CFU; Drug Effect (MRSA (ATCC BAA-43); [4]): 0.34; Laser Effect (+Drug) (MRSA (ATCC BAA-43); laser 870+930 at 5 W 14 min, then 930 at 6 W 9 min, groups B4/D4/F4): 0.18; Laser Effect (+Drug) (MRSA (ATCC BAA-43); laser 870+930 at 5.5 W 12 min, then 930 at 8 W 6 min, groups A4/C4/E4): 0.28; synergistic effect of NIMELS with antibiotic in growth inhibition of MRSA colonies (MRSA (ATCC BAA-43); FIG. 17): being potentiated by sub-lethal NIMELS dosimetry; effect of sub-lethal NIMELS irradiation on antibiotic action against MRSA colonies (words) (MRSA; antibiotic at resistant MIC just below effectiveness level): successful reversal of MRSA resistance

Q: How did the “MRSA Average” value (MRSA in the nares; [5]) turn out when `OO` [Peroxide] was run?
A: 0 CFU (2×) and 22 CFU and 1 CFU

Q: What about the “MRSA Average” value (MRSA in the nares; [6]) of the same compound?
A: 0 CFU (2×) and 455 CFU and 2752 CFU

Q: What about the “MRSA Average” value (MRSA in the nares; [7]) of the same compound?
A: 0 CFU (2×) and 63 CFU and 4 CFU

Q: What about the “MRSA Average” value (MRSA in the nares; [8]) of the same compound?
A: 0 CFU (2×) and 30 CFU and 4032 CFU

Q: What about the “MRSA Average” value (MRSA in the nares; [9]) of the same compound?
A: 0 CFU (3×) and 12 CFU

Q: What about the “MRSA Average” value (MRSA in the nares; [10]) of the same compound?
A: 0 CFU (2×) and 114 CFU and 3347 CFU

Q: And the “MRSA Average” value (MRSA in the nares; [11])?
A: 0 CFU (2×) and 180 CFU and 17 CFU

Q: What about the “MRSA Average” value (MRSA in the nares; [12]) of the same compound?
A: 0 CFU (2×) and 90 CFU and 3099 CFU

Q: And the “MRSA Average” value (MRSA in the nares; [13])?
A: 0 CFU (3×) and 827 CFU

Q: What about the “MRSA Average” value (MRSA in the nares; [14]) of the same compound?
A: 0 CFU (2×) and 563 CFU and 3648 CFU

Q: What about the “s. aureus Average” value (MSSA in the nares; [5]) of the same compound?
A: 0 CFU (2×) and 20 CFU and 1 CFU

Q: What about the “s. aureus Average” value (MSSA in the nares; [6]) of the same compound?
A: 0 CFU and 506 CFU and 146 CFU and 3272 CFU

Q: And the “s. aureus Average” value (MSSA in the nares; [7])?
A: 1 CFU and 53 CFU and 17 CFU and 124 CFU

Q: And the “s. aureus Average” value (MSSA in the nares; [8])?
A: 0 CFU and 29 CFU and 285 CFU and 3996 CFU

Q: What about the “s. aureus Average” value (MSSA in the nares; [9]) of the same compound?
A: 0 CFU (3×) and 10 CFU

Q: What about the “s. aureus Average” value (MSSA in the nares; [10]) of the same compound?
A: 0 CFU and 126 CFU and 5 CFU and 3589 CFU

Q: And the “s. aureus Average” value (MSSA in the nares; [11])?
A: 1 CFU and 206 CFU and 4 CFU and 12 CFU

Q: And the “s. aureus Average” value (MSSA in the nares; [12])?
A: 1 CFU and 94 CFU and 257 CFU and 4373 CFU

Q: And the “s. aureus Average” value (MSSA in the nares; [13])?
A: 1 CFU and 868 CFU and 28 CFU and 0 CFU

Q: And the “s. aureus Average” value (MSSA in the nares; [14])?
A: 1 CFU and 586 CFU and 52 CFU and 3493 CFU

Q: Which “MRSA colony count, CONTROL” value (MRSA; no laser, agar with rifampin 90 ug/ml, samples E1, E2, E3, 5 replicates each) does the source give for `CO[C@H]1/C=C/O[C@@]2(C)Oc3c(C)c(O)c4c(O)c(c(/C=N/N5CCN(C)CC5)c(O)c4c3C2=O)NC(=O)/C(C)=C\C=C\[C@H](C)[C@H](O)[C@@H](C)[C@@H](O)[C@@H](C)[C@H](OC(C)=O)[C@@H]1C` [Rifampin] here?
A: 183 and 210 (3×) and 166 and 228 and 188 and 274 and 180 and 240 and 288 and 280 and 290 and 300

Q: And the “MRSA colony count, EXPERIMENTAL” value (MRSA; agar with rifampin 90 ug/ml, samples E1, E2, E3, 5 replicates each)?
A: 280 (2×) and 272 and 320 and 330 and 284 (2×) and 270 and 225 and 200 (2×) and 210 and 378

Q: Which “MRSA colony count, CONTROL” value (MRSA; no laser, agar with tetracyc. 4 ug/ml, samples E1, E2, E3, 5 replicates each) does the source give for `CN(C)[C@@H]1C(O)=C(C(N)=O)C(=O)[C@@]2(O)C(O)=C3C(=O)c4c(O)cccc4[C@@](C)(O)[C@H]3C[C@@H]12` [Tetracycline] here?
A: 240 and 256 and 268 and 310 (2×) and 255 and 280 and 283 and 263 and 260 and 368 and 380 and 375 and 390

Q: And the “MRSA colony count, EXPERIMENTAL” value (MRSA; agar with tetracyc. 4 ug/ml, samples E1, E2, E3, 5 replicates each)?
A: 42 (2×) and 18 (2×) and 28 and 27 and 16 and 72 and 67 and 45 and 47 and 74 and 56 and 46 and 48

Q: For `COc1cc(Cc2cnc(N)nc2N)cc(OC)c1OC` [Trimethoprim], which “MRSA colony count, CONTROL (no laser)” value (MRSA; no laser, agar with trimeth 2 ug/ml, replicates B-4 1 to 5) is on record?
A: 213 and 198 and 240 and 220 and 145

Q: And the “MRSA colony count, EXPERIMENTAL” value (MRSA; agar with trimeth 2 ug/ml, replicates B-4 1 to 5)?
A: 100 and 110 and 125 and 138 and 115
